Results reported in BigSolDB 2.1.

Nc1ccc(Oc2ccc(N)cc2)cc1
solubility (mole fraction)
Settings	283.15 K	288.15 K	293.15 K	298.15 K	303.15 K	308.15 K	313.15 K	318.15 K	323.15 K
in 2-ethoxyethanol	0.0274	0.0288	0.0306	0.0329	0.0358	0.0394	0.0436	0.0486	0.0544
in DMAc	0.133	0.136	0.139	0.143	0.147	0.152	0.156	0.162	0.168
in DMF	0.104	0.107	0.11	0.115	0.12	0.126	0.132	0.138	0.145
in DMSO	–	–	–	0.153	0.159	0.165	0.172	0.179	0.187
in ethanol	0.000434	0.000549	0.0007	0.00089	0.00113	0.00143	0.00176	0.00217	0.0027
in methanol	0.00114	0.00132	0.00153	0.00178	0.00208	0.00246	0.00293	0.00349	0.00416
